The test concerns the target T1, Tyrosine-protein phosphatase non-receptor type 1 [1-298] (Homo sapiens, UniProt P18031).
T1 construct: 1-298
T1 sequence (P18031 whole entry): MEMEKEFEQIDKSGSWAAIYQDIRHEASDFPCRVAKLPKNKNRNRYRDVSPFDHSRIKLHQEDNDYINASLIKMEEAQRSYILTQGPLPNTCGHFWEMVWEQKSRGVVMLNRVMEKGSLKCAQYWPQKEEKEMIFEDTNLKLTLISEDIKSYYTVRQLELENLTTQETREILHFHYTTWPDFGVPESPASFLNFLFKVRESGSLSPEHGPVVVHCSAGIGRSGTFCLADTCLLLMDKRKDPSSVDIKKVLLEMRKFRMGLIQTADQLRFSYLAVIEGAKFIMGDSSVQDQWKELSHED
In words: Phosphatase Inhibition Assay. Conditions: pH 7; 22 °C.

On to `CC(=O)N[C@@H](Cc1ccccc1)C(=O)N[C@@H](Cc1ccc(C2=CC(=O)NS2(=O)=O)cc1)C(N)=O` [(2S)-N-[(1S)-1-carbamoyl-2-[4-(1,1,3-trioxo-2,3-dihydro-1,2-thiazol-5-yl)phenyl]ethyl]-2-acetamido-3-phenylpropanamide], for which 3 µM corresponded to half-maximal inhibition (IC50).

For the molecule `CC(=O)N[C@@H](Cc1ccccc1)C(=O)N[C@@H](Cc1ccc([C@H]2CC(=O)NS2(=O)=O)cc1)C(N)=O` [(2S)-N-[(1S)-1-carbamoyl-2-{4-[(5R)-1,1,3-trioxo-1,2-thiazolidin-5-yl]phenyl}ethyl]-2-acetamido-3-phenylpropanamide], it took 16 µM to reach half-maximal inhibition (IC50).

These data come from BindingDB's records for doi:10.1074/jbc.M606873200 (Incyte, 2006).
